Test results taken from US5157023A, “Antipyretic and anti-inflammatory lys pro val compositions and method of use” (priority 1991, dated 1992).
Peptide text beside a SMILES is read from it.

Key:
[1] = tested on: leukocytic pyrogen-induced fever; assay: in vivo rabbit pyresis assay (leukocytic pyrogen-induced fever); parameters: species or system New Zealand white rabbits; details: for decrease in fever, percent reduction of the area under the control fever curve: intraventricular (central), 30 min after pyrogen, over 1.5 hours; for fever reduction: 1.5 hour period after injection of leukocytic pyrogen
Protocol: Leukocytic pyrogen is a molecule capable of producing transient fever in mammals which is produced by incubating rabbit leukocytes with Salmonella typhosa endotoxin. More specifically, to produce leukocytic pyrogen, donor rabbits were first sacrificed by decapitation. Blood was collected in a heparinized pryrogen-free beaker. Heparinized 50-ml glass centrifuge tubes were filled 3/4 full with whole blood, saline was added to fill each tube, and the solution was gently mixed. The tubes were then centrifuged at low speed for 20 min. The buffy coat was drawn off and placed in pyrogen-free flasks. Lactate Ringer's solution equal in volume to one-half that of the red cell layer, was added along with Salmonella typhosa endotoxin (Difco, No. 0901) also in Ringer's solution (1 ug/ml), to the buffy coat. The mixture was incubated at 38~C in a shaking water bath for 4 hours. The solution was centrifuged, filtered (Nalgene, 0.20 microns), and the leukocytic pyrogen-containing filtrate was stored at 4~C. Samples of leukocytic pyrogen were heated to 70~C for 2 hours and injected intravenously to test for endotoxin contamination.
Injections were 50 ul in volume and were followed by a 20 ul saline flush. Intravenous injections were made via the marginal ear vein. Intravenous leukocytic pyrogen injections were 0.07 ml of a stock solution made up of a mixture of leukocytic pyrogen derived from 4 donors. When injected, leukocytic pyrogen stock solution was diluted with nonpyrgenic isotonic saline. Injections were made with commercial nonpyrogenic syringes. Glassware was washed with chromic acid, rinsed with deionized water and heated to 200~C for a minimum of 2 hours to insure that it was pyrogen free.
Adult New Zealand white rabbits were used for the development of an antipyretic assay. The rabbits were housed individually in a 21-23~Cenvironment with a 12 hour light/dark cycle; food and water were available ad libitum. […]. Rabbits were placed in a Kopf rabbit stereotaxic instrument and a stainless steel cannula (No. 201, David Kopf Instruments)was inserted into a lateral ventricle at a point 1.0 mm anterior to the bregma and 2.7 mm lateral to the midline. The cannula was lowered until cerebrospinal fluid appeared inside the well of the cannula. Stainless steel screws and dental acrylic were used to anchor the cannula to the caluarium. Benzathine penicillin G (Bicillin, Wyeth Laboratories) was given post-operatively (150,000 units intramuscularly).
(§1) Experimental rabbits that were to be used in the antipyresis study were restrained in conventional holders and a thermistor probe (Yellow Springs International, No. 701) was inserted about 100 mm into the rectum and taped to the tail. In certain experiments, another thermistor probe (Yellow Springs International, No. 709) was attached to the dorsal surface of the ear. Temperature recordings were made every 10 minutes via a MINC 11 online computer connected to a digital temperature recorder (Datalogger, United Systems Corp.) At least 1 hour was allowed after the probes were inserted before injections were made, and all experiments were separated by at least 48 hours. Experiments were run in an environmental chamber at 23~C.
The average thermal response, the mean change in temperature (~C) over the duration of the response measured in hours, was calculated for each response and the paired t-test was used for statistical analysis of the data. The time period over which the experimental anti-pyretic temperature response was determined was generally set by the duration of the control response for the individual animal. The control response begins with the first deviation from baseline temperature and continues until the temperature returns to baseline or to the point nearest the baseline within 5 hours. The mean change in temperature for each 10 minute intervals during this time period are summed and divided by the total number of 10 minute periods. […]

normal body temperature = assay: body temperature of afebrile rabbits; assay type: in vivo
Protocol: as §1
Injections of the tripeptide were given 30 minutes after the pyrogen, into the intraventricular cannula. […] Decreases in fever, calculated as percent reduction of the area under the control fever curve over the apparent duration of action of the peptide (1.5 hours), were 24%, 31%, and 48% for the 0.5, 1.0, and 2.0 milligram doses, respectively. Similarly, intravenous administration of 2, 20 and 200 milligrams of the tripeptide reduced fever 34, 27 and 67% , respectively, during the 1.5 hour period after injection of the leukocytic pyrogen. Control saline injections, centrally administered, caused no significant reduction in body temperature.

[2] = tested on: carrageenan-induced swelling of rat paws; assay: carrageenan/rat paw edema assay; assay type: in vivo, male Sprague-Dawley rats; details: for overall reduction of carrageenan-induced swelling relative to hydrocortisone: approximately equal weights, intraperitoneal
Protocol: A second in vivo bioassay for anti-inflammatory activity was conducted in which the action of the tripeptide was compared to that of hydrocortisone. In this assay, the two agents were given at similar doses and tested for their independent ability to inhibit carrageenan-induced swelling of rats paws. This assay, the rat paw edema test, was conducted generally as it is typically performed in the art, for example, as described by Winter et al. (1962), Proc. Soc. Exp. Biol. Med., 111:544 or in U.S. Pat. No. 4,150,137.
Briefly, the assay was performed as follows. Each of twenty-four male Sprague-Dawley rats was assigned to one of four groups: tripeptide treatment and controls (matched according to body weight and initial paw volume), hydrocortisone treatment and matched controls. The volume of the right rear paw of the test and control animals was determined using standard procedures and a mercury displacement volumetric technique. An intraperitoneal injection of the tripeptide (Ac-Lys-Pro-Val-NH2, 100 mg/kg, N=6), of hydrocortisone (100 mg/kg, N=6), or saline (matched volume, N=12) was given to each rat. One hour later 0.5 ml of 1% lambda carrageenan in saline solution was injected into the right rear paw of the animals and the paw volume was again recorder (baseline measure). […] Thereafter paw volume was measured each hour for out hours. For comparison of the effects of the two treatments, paw volume of experimental animals measured at hourly intervals was expressed as a percentage of the volume change of their respective matched controls.

[3] = tested on: histamine-mediated increase in capillary permeability; assay: skin-blueing test (Sparrow/Wilhelm assay), histamine-induced blue weals; assay type: in vivo, New Zealand white rabbits; details: for relative intensity of histamine-induced blue weals, experimental (E) vs control (C): scored 30 minutes after histamine
Text: This model relies on the principal that localized, subcutaneous injections of histamine will result in a localized increase in capillary permeability. When the test animal has been pretreated with blue dye intravenously, the localized histamine injections will elicit blue-colored "weals" around the injection site. Thus, by preadministration of an effective anti-inflammatory agent, the blue color of the histamine-induced weals will be much less pronounced, with the amount of color reduction being dependent on the relative amount and/or potency of the anti-inflammatory agent used.
Non-moulting New Zealand white rabbits were used for the sparrow/Wilhelm assay. The skin of the rabbits back was closely clipped 1-2 days previous to the experiment, but not dipilated, and the rabbits were kept warm until tested. Various amounts of the protected tripeptide (diacetyl-L-lys-l-Pro-L-Val-NH2) were injected intravenously into an ear vein approximately 15 minutes prior to intravenous injection of blue dye. Control rabbits received sham injections. Fifteen minutes following injection of the agent or sham, the rabbits received approximately 30 mg/kg of Pontamine blue dye as a 2.5% solution in 0.45% saline, into an exposed vein.
Immediately following dye injections, histamine was injected intradermally in a 0.10 ml volume (1.25 mg histamine 0.1 ml volume) at several sites on each side of the spine. In all, one vertical row of six injections were made on each side of the spine. The relative intensity of the resultant blue weals were scored by an independent observer 30 minutes after histamine injection.

CC(C)[C@H](NC(=O)[C@@H]1CCCN1C(=O)[C@@H](N)CCCCN)C(=O)O [L-Lys-L-Pro-L-val] (H-Lys-Pro-Val-OH)
decrease in fever, percent reduction of the area under the control fever curve ([1]; 0.5 milligram dose): 24% | decrease in fever, percent reduction of the area under the control fever curve ([1]; 1.0 milligram dose): 31% | decrease in fever, percent reduction of the area under the control fever curve ([1]; 2.0 milligram dose): 48% | duration of (antipyretic) action ([1]; central administration): 1.5 h | fever reduction ([1]; intravenous 2 milligrams): 34% | fever reduction ([1]; intravenous 20 milligrams): 27% | fever reduction ([1]; intravenous 200 milligrams): 67% | reduction in body temperature of afebrile rabbits (normal body temperature; injections of 200 milligrams): no reduction in body temperature

[Cl][Cu][Cl] [copper ions, cupric chloride]
effect of copper ions alone on normal temperature (normal body temperature; doses used to enhance the protected peptide): no effect on normal temperature

C[C@]12CCC(=O)C=C1CC[C@@H]1[C@@H]2[C@@H](O)C[C@@]2(C)[C@H]1CC[C@]2(O)C(=O)CO [hydrocortisone, reference compound]
inhibition of paw swelling in the first hour ([2]; 100 mg/kg intraperitoneal, first hour after carrageenan, p<0.05 Mann-Whitney vs tripeptide): markedly inhibited swelling

diacetyl-L-Lysyl-L-Prolyl-L-Valyl-NH2 [protected tripeptide]
reduction of fever induced by intravenous leukocytic pyrogen ([1]; 0.5 mg, central administration): more than 50% | antipyretic potency relative to the unprotected tripeptide ([1]; central administration): at least four | duration of (antipyretic) action ([1]; central administration): at least four | activity relative to the unprotected species on a weight basis ([1]; rabbit pyresis assay, summary statement): approximately twice | relative intensity of histamine-induced blue weals, experimental (E) vs control (C) ([3]; 0.625 ug/kg body weight intravenously): No difference | relative intensity of histamine-induced blue weals, experimental (E) vs control (C) ([3]; 1.25 ug/kg body weight intravenously): E lighter than C | relative intensity of histamine-induced blue weals, experimental (E) vs control (C) ([3]; 5 ug/kg body weight intravenously): E lighter than C | relative intensity of histamine-induced blue weals, experimental (E) vs control (C) ([3]; 10 ug/kg body weight intravenously): E lighter than C | lowest intravenous dosage reducing histamine-mediated increase in capillary permeability ([3]; intravenous): 1.25 ug/kg body weight | lowest dosage eliciting a demonstrable reduction in histamine-mediated vascular permeability to vital dyes ([3]; rabbit, in vivo): about 1 microgram/kilogram | inhibition of paw edema compared with hydrocortisone ([2]; 100 mg/kg intraperitoneal each, 1 h before carrageenan, hours after the first hour, p>0.20): no significant difference | overall reduction of carrageenan-induced swelling relative to hydrocortisone ([2]; listed as diacetyl-Lys-Pro-Val-NH2): roughly equivalent | overall reduction of carrageenan-induced swelling relative to hydrocortisone ([2]; listed as protected Lys-Pro-Val tripeptide): commensurate with hydrocortisone
